According to US20230021448A1, “COMPOUNDS AND COMPOSITIONS FOR TREATING CONDITIONS ASSOCIATED WITH STING ACTIVITY” (IFM Due, Inc., priority 2019, published 2023):

Molecular target: T1, STING (Homo sapiens, UniProt Q86WV6, G230A/H232R/R293Q/R71H)
T1 construct: host or cells: THP1-Dual KO-IFNAR2 cells
Test: STING reporter assay: luciferase reporter activity in THP1-Dual KO-IFNAR2 cells stimulated with 2'3'cGAMP
Assay type: cell-based
Settings: 2′3′cGAMP 15 μM final, 24h, read-out: hSTING: EC50
Procedure: STING pathway activation by the compounds described herein was measured using THIP1-Dua1™ cells (KO-IFNAR2).
TTIP1-Dual™ KO-IFNAR2 Cells (obtained from invivogen) were maintained in RPMI, 10% FCS, 5 ml P/S, 2 mM L-glut, 10 mM Hepes, and 1 mM sodium pyruvate. Compounds were spotted in empty 384 well tissue culture plates (Greiner 781182) by Echo for a final concentration of 0.0017-100 μM. Cells were plated into the TC plates at 40 μL per well, 2×10E6 cells/mL. For activation with STING ligand, 2′3′cGAMP (MW 718.38, obtained from Invivogen), was prepared in Optimem media.
The following solutions were prepared for each 1×384 plate: • Solution A: 2 mL Optimem with one of the following stimuli: • […] • Solution B: 2 mL Optimem with 60 μL Lipofectamine 2000->Incubate 5 min at RT
2 mL of solution A and 2 ml Solution B was mixed and incubated for 20 min at room temperature (RT). 20 uL of transfection solution (A+B) was added on top of the plated cells, with a final 2′3′cGAMP concentration of 15 μM. The plates were then centrifuged immediately at 340 g for 1 minute, after which they were incubated at 37° C., 5% C02, >98% humidity for 24h. Luciferase reporter activity was then measured. EC50 values were calculated by using standard methods known in the art.
Luciferase reporter assay: 10 μL of supernatant from the assay was transferred to white 384-plate with flat bottom and squared wells. One pouch of QUANTI-Luc™ Plus was dissolved in 25 mL of water. 100 μL of QLC Stabilizer per 25 mL of QUANTI-Luc™ Plus solution was added. 50 μL of QUANTI-Luc™ Plus/QLC solution per well was then added. Luminescence was measured on a Platereader (e.g., Spectramax I3X (Molecular Devices GF3637001)).
Luciferase reporter activity was then measured. EC50 values were calculated by using standard methods known in the art.

T1 sequence (Q86WV6 whole entry R71H/G230A/H232R/R293Q): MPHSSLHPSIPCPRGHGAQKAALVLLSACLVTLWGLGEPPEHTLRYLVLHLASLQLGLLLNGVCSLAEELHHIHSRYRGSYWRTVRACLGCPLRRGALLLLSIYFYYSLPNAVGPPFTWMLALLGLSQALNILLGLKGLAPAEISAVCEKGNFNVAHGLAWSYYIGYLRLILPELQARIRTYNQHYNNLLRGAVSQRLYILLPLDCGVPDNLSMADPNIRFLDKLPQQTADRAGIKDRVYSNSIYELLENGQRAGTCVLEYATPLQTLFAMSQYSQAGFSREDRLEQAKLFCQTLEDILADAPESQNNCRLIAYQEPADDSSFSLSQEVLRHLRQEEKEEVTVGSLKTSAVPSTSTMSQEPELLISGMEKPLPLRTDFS

Compound	EC50 [µM]
O=C(NC[C@@H](C(F)F)C1CCCCC1)C(=O)Nc1c[nH]c2cc(F)c(F)cc12 [Compound 135]	0.2 to 1
O=C(NC[C@H](C(F)F)C1CCCCC1)C(=O)Nc1c[nH]c2cc(F)c(F)cc12 [Compound 136]	0.04 to 0.2
CC(C)(NC(=O)C(=O)Nc1c[nH]c2cc(F)c(F)cc12)c1ccc(C(F)(F)F)c(Cl)c1 [Compound 137]	0.2 to 1
O=C(NCC(c1ccccc1)C(F)F)C(=O)Nc1c[nH]c2cc(F)c(F)cc12 (stereo not drawn) [Compound 139]	0.2 to 1
O=C(NCC1(c2cccc(Cl)c2)CCOCC1)C(=O)Nc1c[nH]c2cc(F)c(F)cc12 [Compound 140]	1 to 5
CN(Cc1ccc(C(F)(F)F)c(Cl)c1)C(=O)C(=O)Nc1c[nH]c2cc(F)c(F)cc12 [Compound 141]	5 to 100
O=C(NCC(C(F)F)C1CCCCC1)C(=O)Nc1c[nH]c2cc(F)c(F)cc12 (stereo not drawn) [Compound 142]	0.2 to 1
O=C(NCC1CCc2ccccc2O1)C(=O)Nc1c[nH]c2cc(F)c(F)cc12 (stereo not drawn) [Compound 145, N-(chroman-2-ylmethyl)-N2-(5,6-difluoro-1H-indol-3-yl)oxalamide]	0.2 to 1
O=C(NCC1(c2ccccc2)CC1)C(=O)Nc1c[nH]c2cc(F)c(F)cc12 [Compound 146, N1-(5,6-difluoro-1H-indol-3-yl)-N2-((1-phenylcyclopropyl)methyl)oxalamide]	0.2 to 1
Cc1ccc(OCCNC(=O)C(=O)Nc2c[nH]c3cc(F)c(F)cc23)cc1C [Compound 147, N1-(5,6-difluoro-1H-indol-3-yl)-N2-(2-(3,4-dimethylphenoxy)ethyl)oxalamide]	0.2 to 1
O=C(NCc1cccc2c1OC(F)(F)O2)C(=O)Nc1c[nH]c2cc(F)c(F)cc12 [Compound 148, N1-(5,6-difluoro-1H-indol-3-yl)-N2-((2,2-difluorobenzo[d] [1,3]dioxol-4-yl)methyl) oxalamide]	0.04 to 0.2
O=C(NCC1CCCC(F)(F)C1)C(=O)Nc1c[nH]c2cc(F)c(F)cc12 (stereo not drawn) [Compound 150, N1-(5,6-difluoro-1H-indol-3-yl)-N2-((3,3-difluorocyclohexyl)methyl)oxalamide]	0.2 to 1
O=C(NCC1CCC(F)(F)CC1)C(=O)Nc1c[nH]c2cc(F)c(F)cc12 [Compound 151, N1-(5,6-difluoro-1H-indol-3-yl)-N2-((4,4-difluorocyclohexyl)methyl) oxalamide]	0.2 to 1
O=C(NCCC1(C(F)(F)F)CC1)C(=O)Nc1c[nH]c2cc(F)c(F)cc12 [Compound 152, N1-(5,6-difluoro-1H-indol-3-yl)-N2-(2-(1-(trifluoromethyl)cyclopropyl)ethyl)oxalamide]	0.2 to 1
CC1(CNC(=O)C(=O)Nc2c[nH]c3cc(F)c(F)cc23)CCC(F)(F)CC1 [Compound 153, N1-((4,4-difluoro-1-methylcyclohexyl)methyl)-N2-(5,6-difluoro-1H-indol-3-yl)oxalamide]	1 to 5
Cc1cc(F)c(Cl)cc1NC(=O)C(=O)Nc1c[nH]c2cc(F)c(F)cc12 [Compound 154, N1-(5-chloro-4-fluoro-2-methylphenyl)-N2-(5,6-difluoro-1H-indol-3-yl)oxalamide]	0.2 to 1

Compound	EC50 [µM]
O=C(Nc1ccc(OCC(F)(F)F)nc1)C(=O)Nc1c[nH]c2cc(F)c(F)cc12 [Compound 157, N1-(5,6-difluoro-1H-indol-3-yl)-N2-(6-(2,2,2-trifluoroethoxy)pyridin-3-yl) oxalamide]	0.2 to 1
COc1ccc(CNC(=O)C(=O)Nc2c[nH]c3cc(F)c(F)cc23)cc1Cl [Compound 161, N1-(3-chloro-4-methoxybenzyl) N2-(5,6-difluoro-1H-indol-3-yl)oxalamide]	0.2 to 1
O=C(NCc1cccc(N2CCCCC2)c1)C(=O)Nc1c[nH]c2cc(F)c(F)cc12 [Compound 162, N1-(5,6-difluoro-1H-indol-3-yl)-N2-(3-(piperidin-1-yl)benzyl) oxalamide]	0.2 to 1
Cc1ccc(CNC(=O)C(=O)Nc2c[nH]c3ccc(-c4cnn(C(C)C)c4)cc23)cc1C(F)(F)F [Compound 168]	0.2 to 1
O=C(Nc1c[nH]c2cc(F)c(F)cc12)C(=O)NC1CCN(c2ccccc2)C1 (stereo not drawn) [Compound 169]	0.2 to 1
Cn1cc(NC(=O)C(=O)NCc2ccc(C(F)(F)F)c(Cl)c2)c2cc(F)c(F)cc21 [Compound 170]	5 to 100
O=C(NCc1ccc(C(F)(F)F)c(Cl)c1)C(=O)Nc1c[nH]c2ccccc12 [Compound 171]	0.2 to 1
O=C(Nc1ccc(C(F)(F)F)cc1)C(=O)Nc1c[nH]c2cc(F)ccc12 [Compound 172]	0.2 to 1
O=C(NCc1cnc(C(F)(F)F)c(Cl)c1)C(=O)Nc1c[nH]c2cc(F)c(F)cc12 [Compound 173]	0.2 to 1
O=C(Nc1c[nH]c2cc(F)c(F)cc12)C(=O)N[C@H]1CC[C@H](OCC(F)F)CC1 [Compound 174]	0.2 to 1
O=C(Nc1ccc(C2CCC(F)(F)CC2)nc1)C(=O)Nc1c[nH]c2cc(F)c(F)cc12 [Compound 175]	0.2 to 1
O=C(NC[C@@H]1CC12CCCCC2)C(=O)Nc1c[nH]c2cc(F)c(F)cc12 [Compound 176]	0.2 to 1
O=C(NC[C@H]1CC12CCCCC2)C(=O)Nc1c[nH]c2cc(F)c(F)cc12 [Compound 177]	0.04 to 0.2
O=C(Nc1c[nH]c2cc(F)c(F)cc12)C(=O)NC1CCC(OCC(F)F)CC1 (stereo not drawn) [Compound 178]	0.2 to 1
O=C(NCCC1CCC(F)(F)CC1)C(=O)Nc1c[nH]c2ccccc12 [Compound 179]	1 to 5

Continued, values first:

EC50 [µM]	Compound
0.2 to 1	O=C(NCCc1ccccc1C(F)(F)F)C(=O)Nc1c[nH]c2cc(F)c(F)cc12 [Compound 138, N1-(5,6-difluoro-1H-indol-3-yl)-N2-(2-(trifluoromethyl)phenethyl) oxalamide]
0.2 to 1	O=C(NCCc1ccc(C(F)(F)F)c(Cl)c1)C(=O)Nc1c[nH]c2cc(F)c(F)cc12 [Compound 143]
0.2 to 1	O=C(NCCc1ccc(C(F)(F)F)cc1)C(=O)Nc1c[nH]c2cc(F)c(F)cc12 [Compound 144, N1-(5,6-difluoro-1H-indol-3-yl)-N2-(4-(trifluoromethyl)phenethyl) oxalamide]
0.2 to 1	O=C(NCCOc1ccc(C(F)(F)F)cc1)C(=O)Nc1c[nH]c2cc(F)c(F)cc12 [Compound 149, N1-(5,6-difluoro-1H-indol-3-yl)-N2-(2-(4-(trifluoromethyl)phenoxy)ethyl) oxalamide]
0.2 to 1	O=C(NCC(F)(F)c1ccccc1)C(=O)Nc1c[nH]c2cc(F)c(F)cc12 [Compound 155, N1-(5,6-difluoro-1H-indol-3-yl)-N2-(2,2-difluoro-2-phenylethyl) oxalamide]
0.2 to 1	CC(NC(=O)C(=O)Nc1c[nH]c2cc(F)c(F)cc12)c1ccc(C(F)(F)F)cc1 (stereo not drawn) [Compound 156, N1-(5,6-difluoro-1H-indol-3-yl)-N2-(1-(4-(trifluoromethyl)phenyl)ethyl) oxalamide]
0.2 to 1	CC(CNC(=O)C(=O)Nc1c[nH]c2cc(F)c(F)cc12)Oc1ccc(C(F)(F)F)cc1 (stereo not drawn) [Compound 158, N1-(5,6-difluoro-1H-indol-3-yl)-N2-(2-(4-(trifluoromethyl)phenoxy)propyl) oxalamide]
0.2 to 1	COc1ccc(CNC(=O)C(=O)Nc2c[nH]c3cc(F)c(F)cc23)cc1C(F)(F)F [Compound 159, N1-(5,6-difluoro-1H-indol-3-yl)-N2-(4-methoxy-3-(trifluoromethyl)benzyl)oxalamide]
0.2 to 1	O=C(NCc1ccc(Cl)cc1C(F)(F)F)C(=O)Nc1c[nH]c2cc(F)c(F)cc12 [Compound 160, N1-(4-chloro-2-(trifluoromethyl)benzyl)-N2-(5,6-difluoro-1H-indol-3-yl)oxalamide]
0.2 to 1	O=C(NCc1cccc(C(F)(F)F)c1F)C(=O)Nc1c[nH]c2cc(F)c(F)cc12 [Compound 163, N1-(5,6-difluoro-1H-indol-3-yl)-N2-(2-fluoro-3-(trifluoromethyl)benzyl)oxalamide]
0.04 to 0.2	O=C(NCc1ccc(Cl)c(C(F)(F)F)c1)C(=O)Nc1c[nH]c2cc(F)c(F)cc12 [Compound 164, N1-(4-chloro-3-(trifluoromethyl)benzyl)-N2-(5,6-difluoro-1H-indol-3-yl)oxalamide]
0.04 to 0.2	O=C(NCc1ccccc1C(F)(F)F)C(=O)Nc1c[nH]c2cc(F)c(F)cc12 [Compound 165, N1-(5,6-difluoro-1H-indol-3-yl)-N2-(2-(trifluoromethyl)benzyl)oxalamide]
0.2 to 1	O=C(NCc1cccc(OC(F)(F)F)c1)C(=O)Nc1c[nH]c2cc(F)c(F)cc12 [Compound 166, N1-(5,6-difluoro-1H-indol-3-yl)-N2-(3-(trifluoromethoxy)benzyl)oxalamide]
0.2 to 1	Cc1c(NC(=O)C(=O)Nc2c[nH]c3cc(F)c(F)cc23)cccc1C(F)(F)F [Compound 167, N1-(5,6-difluoro-1H-indol-3-yl)-N2-(2-methyl-3-(trifluoromethyl)phenyl)oxalamide]
